Measurements: patent publication US20090029983A1, “NOVEL HETEROCYCLIC COMPOUNDS HAVING ANTI-HBV ACTIVITY” (priority 2005, published 2009)
pEC50: −log10 of the molar value.

What follows are compounds tested on HBV (assay: HBV screening assay (viral DNA in baculovirus-HBV transduced HepG2 cells)). Conditions: Hepatitis B virus, HepG2, 72 h, read-out: EC50 (antiviral activity), HBV-transduced HepG2 cells, three days with compound, viral DNA by ELISA.
Type: cell-based
Protocol: HepG2 cells were transduced using a baculovirus to deliver the HBV genome essentially as previously described (Delaney et al. in Hepatology 1998; 28: 1134-1146). Transduced cells were cultured in supplemented EMEM media with 10% fetal bovine serum in a 5% CO2 incubator at 37° C. for three days in the presence of test compounds. The cells were lysed in a buffer containing 0.5% NP-40 and […] proteinase K. A solid-phase hybridization was performed to capture the viral DNA and to label the target DNA with Digoxigenin-labeled DNA probes. The viral DNA was detected by ELISA, using horseradish peroxidase-conjugated anti-digoxigenin antibodies.
The EC50 values were determined using ExcelFit software from the inhibition values of a titration curve for each compound. For CC50 determinations, the same titration of compounds was co-cultured with non-transduced HepG2 for three days under the conditions described above. The Promega CellTiter 96 Aqueous One Solution Cell Proliferation Assay was used to measure cell proliferation/viability. The CC50 values were determined using ExcelFit software from the inhibition values of the titration curve for each compound.

First: CNC(=O)CC1CCc2c1nc1sc(C(N)=O)c(N)c1c2-c1cccs1 (stereo not drawn) [Compound 42, 3-Amino-7-methylcarbamoylmethyl-4-thiophen-2-yl-6,7-dihydro-5H-cyclopenta[b]thieno[3,2-e]pyridine-2-carboxylic acid amide]
Second: CN(C)C(=O)CC1CCc2c1nc1sc(C(N)=O)c(N)c1c2-c1cccs1 (stereo not drawn) [Compound 49, 3-Amino-7-dimethylcarbamoylmethyl-4-thiophen-2-yl-6,7-dihydro-5H-cyclopenta[b]thieno[3,2-e]pyridine-2-carboxylic acid amide]
The pEC50 of the first is higher: 5.00 to 6.00 for the first, < 5.00 for the second.

Compared with CCOC1CCc2c1nc1sc(C(N)=O)c(N)c1c2-c1cccs1 (stereo not drawn) [Compound 35, 3-Amino-7-ethoxy-4-thiophen-2-yl-6,7-dihydro-5H-cyclopenta[b]thieno[3,2-e]pyridine-2-carboxylic acid amide], CCOC(=O)CC1CCc2c1nc1sc(C(N)=O)c(N)c1c2-c1cccs1 (stereo not drawn) [Compound 41, 3-Amino-7-carbethoxymethyl-4-thiophen-2-yl-6,7-dihydro-5H-cyclopenta[b]thieno[3,2-e]pyridine-2-carboxylic acid amide] is lower in pEC50: > 6.00 for the first, < 5.00 for the second.

First: NC(=O)c1sc2nc3c(c(-c4cccs4)c2c1N)CN(C(=S)NCCCc1ccccc1)C3 [Compound 86, 3-Amino-6-(3-phenyl-propylthiocarbamoyl)-4-thiophen-2-yl-6,7-dihydro-5H-1-thia-6,8-diaza-s-indacene-2-carboxylic acid amide]
Second: NC(=O)c1sc2nc3c(c(-c4cccs4)c2c1N)CN(C(=S)Nc1ccccc1)C3 [Compound 79, 3-Amino-6-phenylthiocarbamoyl-4-thiophen-2-yl-6,7-dihydro-5H-1-thia-6,8-diaza-s-indacene-2-carboxylic acid amide]
The pEC50 of the first is higher: 5.00 to 6.00 for the first, < 5.00 for the second. The first is the more potent here.

CC(C)(C)OC(=O)N1CCc2c(nc3sc(C(N)=O)c(N)c3c2-c2cccs2)C1 [Compound 30, 3-Amino-7-tert-butyloxycarbonyl-4-thiophen-2-yl-5,6,7,8-tetrahydro-1-thia-7,9-diaza-cyclopenta[b]naphthalene-2-carboxylic acid amide] and CC(C)(C)OC(=O)N1CCc2nc3sc(C(N)=O)c(N)c3c(-c3cccs3)c2C1 [Compound 32, 3-Amino-6-tert-butyloxycarbonyl-4-thiophen-2-yl-5,6,7,8-tetrahydro-thieno[2,3-b][1,6]naphthyridine-2-carboxylic acidamide] cannot be ordered by pEC50: < 5.00 for the first, < 5.00 for the second.

First: NC(=O)c1sc2nc3c(c(-c4cccs4)c2c1N)CN(CCOC(=O)c1ccccc1)C3 [Compound 9, 3-Amino-6-(2-benzoyloxy-ethyl)-4-thiophen-2-yl-6,7-dihydro-5H-1-thia-6,8-diaza-s-indacene-2-carboxylic acid amide]
Second: NC(=O)c1sc2nc3c(c(-c4cccs4)c2c1N)CN(CCc1ccccc1)C3 [Compound 10, 3-Amino-6-phenethyl-4-thiophen-2-yl-6,7-dihydro-5H-1-thia-6,8-diaza-s-indacene-2-carboxylic acid amide]
The pEC50 of the first is higher: 5.00 to 6.00 for the first, < 5.00 for the second. The first is the more potent here.

NC(=O)c1sc2nc3c(c(-c4cccs4)c2c1N)CCC3CC(=O)N1CCN(c2ccccn2)CC1 (stereo not drawn) [Compound 53, 3-Amino-7-[2-oxo-2-(4-pyridin-2-yl-piperazin-1-yl)-ethyl]-4-thiophen-2-yl-6,7-dihydro-5H-cyclopenta[b]thieno[3,2-e]pyridine-2-carboxylic acid amide] and NC(=O)c1sc2nc3c(c(-c4cccs4)c2c1N)CCC3CC(=O)NC1CCC1 (stereo not drawn) [Compound 50, 3-Amino-7-cyclobutylcarbamoylmethyl-4-thiophen-2-yl-6,7-dihydro-5H-cyclopenta[b]thieno[3,2-e]pyridine-2-carboxylic acid amide] cannot be ordered by pEC50: < 5.00 for the first, < 5.00 for the second.

NC(=O)c1sc2nc3c(c(-c4cccs4)c2c1N)CN(C(=O)c1ccc(N2CCOCC2)nc1)C3 [Compound 105, 3-Amino-6-(6-morpholin-4-yl-pyridine-3-carbonyl)-4-thiophen-2-yl-6,7-dihydro-5H-1-thia-6,8-diaza-s-indacene-2-carboxylicacid amide] and NC(=O)c1sc2nc3c(c(-c4cccs4)c2c1N)CN(CCCN1CCOCC1)C3 [Compound 27, 3-Amino-6-(3-morpholin-4-yl-propyl)-4-thiophen-2-yl-6,7-dihydro-5H-1-thia-6,8-diaza-s-indacene-2-carboxylic acid amide] cannot be ordered by pEC50: < 5.00 for the first, < 5.00 for the second.

Compared with CCNC(=O)N1Cc2nc3sc(C(N)=O)c(N)c3c(-c3cccs3)c2C1 [Compound 98, 3-Amino-4-thiophen-2-yl-5,7-dihydro-1-thia-6,8-diaza-s-indacene-2,6-dicarboxylicacid 2-amide 6-ethylamide], COCCN1Cc2nc3sc(C(N)=O)c(N)c3c(-c3cccs3)c2C1 [Compound 17, 3-Amino-6-(2-methoxy-ethyl)-4-thiophen-2-yl-6,7-dihydro-5H-1-thia-6,8-diaza-s-indacene-2-carboxylic acid amide] is lower in pEC50: > 6.00 for the first, < 5.00 for the second.

First: Cc1ccccc1CN1Cc2nc3sc(C(N)=O)c(N)c3c(-c3cccs3)c2C1 [Compound 22, 3-Amino-6-(2-methyl-benzyl)-4-thiophen-2-yl-6,7-dihydro-5H-1-thia-6,8-diaza-s-indacene-2-carboxylic acid amide]
Second: COc1cccc(NC(=S)N2Cc3nc4sc(C(N)=O)c(N)c4c(-c4cccs4)c3C2)c1 [Compound 85, 3-Amino-6-(3-methoxy-phenylthiocarbamoyl)-4-thiophen-2-yl-6,7-dihydro-5H-1-thia-6,8-diaza-s-indacene-2-carboxylic acid amide]
The pEC50 of the first is higher: 5.00 to 6.00 for the first, < 5.00 for the second. The first is the more potent here.

COc1ccccc1CNC(=O)CC1CCc2c1nc1sc(C(N)=O)c(N)c1c2-c1cccs1 (stereo not drawn) [Compound 44, 3-Amino-7-[(2-methoxy-benzylcarbamoyl)-methyl]-4-thiophen-2-yl-6,7-dihydro-5H-cyclopenta[b]thieno[3,2-e]pyridine-2-carboxylic acid amide] and CCOC(=O)CC1CCCc2c1nc1sc(C(N)=O)c(N)c1c2-c1cccs1 (stereo not drawn) [Compound 71, 3-Amino-8-carbethoxymethyl-4-thiophen-2-yl-5,6,7,8-tetrahydro-thieno[2,3-b]quinoline-2-carboxylic acid amide] cannot be ordered by pEC50: < 5.00 for the first, < 5.00 for the second.

N#CCCC1CCCc2c1nc1sc(C(N)=O)c(N)c1c2-c1cccs1 (stereo not drawn) [Compound 62, 3-Amino-8-(2-cyano-ethyl)-4-thiophen-2-yl-5,6,7,8-tetrahydro-thieno[2,3-b]quinoline-2-carboxylic acid amide] and CCOC(=O)N1CCC(NC(=O)CC2CCc3c2nc2sc(C(N)=O)c(N)c2c3-c2cccs2)CC1 (stereo not drawn) [Compound 54, 4-[2-(3-Amino-2-carbamoyl-4-thiophen-2-yl-6,7-dihydro-5H-cyclopenta[b]thiano[3,2-e]pyridin-7-yl)-acetylamino]-piperidine-1-carboxylic acid ethyl ester] cannot be ordered by pEC50: < 5.00 for the first, < 5.00 for the second.

COC(=O)c1ccc(NC(=S)N2Cc3nc4sc(C(N)=O)c(N)c4c(-c4cccs4)c3C2)cc1 [Compound 90, 4-[(3-Amino-2-carbaomyl-4-thiophen-2-yl-5,7-dihydro-1-thia-6,8-diaza-s-indacene-6-carbothioyl)-amino]benzoic acid methylester] was tested, and the pEC50 was < 5.00.

Same assay, conditions: read-out: EC50 (antiviral activity); HBV-transduced HepG2 cells, three days with compound, viral DNA by ELISA

NC(=O)c1sc2nc3c(c(-c4cccs4)c2c1N)CN(C(=S)NCc1ccccc1)C3 [Compound 84, 3-Amino-6-benzylthiocarbamoyl-4-thiophen-2-yl-6,7-dihydro-5H-1-thia-6,8-diaza-s-indacene-2-carboxylic acid amide] showed a pEC50 of 5.00 to 6.00.
